Reference: US20250098679A1, “HERBICIDAL PYRIDONE DERIVATIVES” (SYNGENTA CROP PROTECTION AG, priority 2021, published 2025)

Experiments:
Type in all cases: in vivo
Details in all cases: evaluated after 13 days
[1] = tested on: Echinochloa crus-galli (ECHCG); assay: Pre-emergence Test, Echinochloa crus-galli (ECHCG)
Zea mays (ZEAMX) [2] = assay: Pre-emergence Test, Zea mays (ZEAMX)
Zea mays (ZEAMX) [3] = assay: Post-emergence Test, Zea mays (ZEAMX); parameters: key to percentage damage caused to the plant, ZEAMX (five-point scale): 5=81-100%, 4=61-80%, 3=41-60%, 2=21-40%, 1=0-20% damage
Outline: (§1)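 Pots sprayed with compound in acetone/water (50:50) with 0.5% Tween 20, at 1000 g/ha unless noted, glasshouse 24/16 °C, 14 h light, 65% humidity. Damage scored 13 days after spraying on a five-point scale (5=81-100% to 1=0-20%).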

[4] = tested on: Ipomoea hederacea (IPOHE); assay: Pre-emergence Test, Ipomoea hederacea (IPOHE)
Setaria faberi (SETFA) [5] = assay: Post-emergence Test, Setaria faberi (SETFA); parameters: key to percentage damage caused to the plant, SETFA (five-point scale): 5=81-100%, 4=61-80%, 3=41-60%, 2=21-40%, 1=0-20% damage
Outline: as §1

Setaria faberi (SETFA) [6] = assay: Pre-emergence Test, Setaria faberi (SETFA)
[7] = tested on: Amaranthus palmeri (AMAPA); assay: Pre-emergence Test, Amaranthus palmeri (AMAPA)
[8] = tested on: Ipomoea hederacea (IPOHE); assay: Post-emergence Test, Ipomoea hederacea (IPOHE); parameters: key to percentage damage caused to the plant, IPOHE (five-point scale): 5=81-100%, 4=61-80%, 3=41-60%, 2=21-40%, 1=0-20% damage
Outline: as §1

[9] = tested on: Amaranthus retoflexus (AMARE); assay: Post-emergence Test, Amaranthus retoflexus (AMARE); parameters: key to percentage damage caused to the plant, AMARE (five-point scale): 5=81-100%, 4=61-80%, 3=41-60%, 2=21-40%, 1=0-20% damage
Outline: as §1

[10] = tested on: Echinochloa crus-galli (ECHCG); assay: Post-emergence Test, Echinochloa crus-galli (ECHCG); parameters: key to percentage damage caused to the plant, ECHCG (five-point scale): 5=81-100%, 4=61-80%, 3=41-60%, 2=21-40%, 1=0-20% damage
Outline: as §1

[11] = tested on: Amaranthus palmeri (AMAPA); assay: Post-emergence Test, Amaranthus palmeri (AMAPA); parameters: key: 5=81-100%, 4=61-80%, 3=41-60%, 2=21-40%, 1=0-20% damage
Outline: as §1

[12] = tested on: Amaranthus retoflexus (AMARE); assay: Pre-emergence Test, Amaranthus retoflexus (AMARE)

SMILES | Pre-emergence Test ECHCG, percentage damage caused to the plant (five-point scale) ([1]; 1000 g/ha) | Pre-emergence Test ZEAMX, percentage damage caused to the plant (five-point scale) (Zea mays (ZEAMX) [2]; 1000 g/ha) | percentage damage caused to the plant, ZEAMX (five-point scale) (Zea mays (ZEAMX) [3]; 250 g/Ha) | percentage damage caused to the plant, ZEAMX (five-point scale) (Zea mays (ZEAMX) [3]; 1000 g/ha) | Pre-emergence Test IPOHE, percentage damage caused to the plant (five-point scale) ([4]; 1000 g/ha) | percentage damage caused to the plant, SETFA (five-point scale) (Setaria faberi (SETFA) [5]; 250 g/Ha) | percentage damage caused to the plant, SETFA (five-point scale) (Setaria faberi (SETFA) [5]; 1000 g/ha) | Pre-emergence Test SETFA, percentage damage caused to the plant (five-point scale) (Setaria faberi (SETFA) [6]; 1000 g/ha) | Pre-emergence Test AMAPA, percentage damage caused to the plant (five-point scale) ([7]; 1000 g/ha) | percentage damage caused to the plant, IPOHE (five-point scale) ([8]; 250 g/Ha) | percentage damage caused to the plant, IPOHE (five-point scale) ([8]; 1000 g/ha) | percentage damage caused to the plant, AMARE (five-point scale) ([9]; 250 g/Ha) | percentage damage caused to the plant, AMARE (five-point scale) ([9]; 1000 g/ha) | percentage damage caused to the plant, ECHCG (five-point scale) ([10]; 250 g/Ha) | percentage damage caused to the plant, ECHCG (five-point scale) ([10]; 1000 g/ha) | percentage damage caused to the plant, AMAPA (five-point scale) ([11]; 250 g/Ha) | percentage damage caused to the plant, AMAPA (five-point scale) ([11]; 1000 g/ha) | Pre-emergence Test AMARE, percentage damage caused to the plant (five-point scale) ([12]; 1000 g/ha) | further results
CCn1c(Cn2ccc(C(F)(F)F)n2)cc(=O)c(C(=O)O)c1-c1ccc(F)c(Cl)c1 [Compound 32, 2-(3-chloro-4-fluoro-phenyl)-1-ethyl-4-oxo-6-[[3-(trifluoromethyl)pyrazol-1-yl]methyl]pyridine-3-carboxylic acid] | 5 (5=81-100%) | 4 (4=61-80%) | 1 (1=0-20%) | 3 (3=41-60%) | 3 (3=41-60%) | 4 (4=61-80%) | 4 (4=61-80%) | 5 (5=81-100%) | 4 (4=61-80%) | 4 (4=61-80%) | 2 (2=21-40%) | 1 (1=0-20%) | 4 (4=61-80%) | 3 (3=41-60%) | 4 (4=61-80%) | 2 (2=21-40%) | 2 (2=21-40%) | 3 (3=41-60%) | 
CCn1c(Cn2nc(Cl)cc2C)cc(=O)c(C(=O)O)c1-c1ccc(Cl)c(Cl)c1 [Compound 15, 6-[(3-chloro-5-methyl-pyrazol-1-yl)methyl]-2-(3,4-dichlorophenyl)-1-ethyl-4-oxo-pyridine-3-carboxylic acid] | 4 (4=61-80%) | 2 (2=21-40%) | 2 (2=21-40%) | 3 (3=41-60%) | 3 (3=41-60%) | 3 (3=41-60%) | 4 (4=61-80%) | 4 (4=61-80%) | 5 (5=81-100%) | 3 (3=41-60%) | 5 (5=81-100%) | 5 (5=81-100%) | 3 (3=41-60%) | 4 (4=61-80%) | 4 (4=61-80%) | 5 (5=81-100%) | 5 (5=81-100%) | 2 (2=21-40%) | 
CCn1c(Cn2ccc(I)n2)cc(=O)c(C(=O)O)c1-c1ccc(Cl)c(Cl)c1 [Compound 78, 2-(3,4-dichlorophenyl)-1-ethyl-6-[(3-iodopyrazol-1-yl)methyl]-4-oxo-pyridine-3-carboxylic acid] | 5 (5=81-100%) | 3 (3=41-60%) | 1 (1=0-20%) | 3 (3=41-60%) | 4 (4=61-80%) | 4 (4=61-80%) | 4 (4=61-80%) | 5 (5=81-100%) | 2 (2=21-40%) | 4 (4=61-80%) | 4 (4=61-80%) | 1 (1=0-20%) | 3 (3=41-60%) | 3 (3=41-60%) | 4 (4=61-80%) | 2 (2=21-40%) | 2 (2=21-40%) | 2 (2=21-40%) | Pre-emergence Test ECHCG, percentage damage caused to the plant (five-point scale) ([1]; 250 g/Ha (*)): 5 (5=81-100%); Pre-emergence Test ZEAMX, percentage damage caused to the plant (five-point scale) (Zea mays (ZEAMX) [2]; 250 g/Ha (*)): 4 (4=61-80%); Pre-emergence Test IPOHE, percentage damage caused to the plant (five-point scale) ([4]; 250 g/Ha (*)): 4 (4=61-80%); Pre-emergence Test SETFA, percentage damage caused to the plant (five-point scale) (Setaria faberi (SETFA) [6]; 250 g/Ha (*)): 5 (5=81-100%); Pre-emergence Test AMAPA, percentage damage caused to the plant (five-point scale) ([7]; 250 g/Ha (*)): 3 (3=41-60%); Pre-emergence Test AMARE, percentage damage caused to the plant (five-point scale) ([12]; 250 g/Ha (*)): 2 (2=21-40%)
CCn1c(Cn2cc3c(n2)CCCC3)cc(=O)c(C(=O)O)c1-c1ccc(Cl)c(Cl)c1 [Compound 101, 2-(3,4-dichlorophenyl)-1-ethyl-4-oxo-6-(4,5,6,7-tetrahydroindazol-2-ylmethyl)pyridine-3-carboxylic acid] | 0 | 1 (1=0-20%) | 0 | 0 | 2 (2=21-40%) | 0 | 0 | 1 (1=0-20%) | 2 (2=21-40%) | 0 | 3 (3=41-60%) | 0 | 0 | 1 (1=0-20%) | 0 | 0 | 0 | 1 (1=0-20%) | 
CCOc1cc(C)nn1Cc1cc(=O)c(C(=O)O)c(-c2ccc(Cl)c(Cl)c2)n1CC [Compound 149, 2-(3,4-dichlorophenyl)-6-[(5-ethoxy-3-methyl-pyrazol-1-yl)methyl]-1-ethyl-4-oxo-pyridine-3-carboxylic acid] | 1 (1=0-20%) | 0 | 0 | 2 (2=21-40%) | 0 | 1 (1=0-20%) | 3 (3=41-60%) | 4 (4=61-80%) | 3 (3=41-60%) | 1 (1=0-20%) | 2 (2=21-40%) | 0 | 2 (2=21-40%) | 1 (1=0-20%) | 4 (4=61-80%) | 0 | 1 (1=0-20%) | 1 (1=0-20%) | 
CCn1c(Cn2ccc(C(F)(F)F)n2)c(Br)c(=O)c(C(=O)O)c1-c1ccc(Cl)c(Cl)c1 [Compound 18, 5-bromo-2-(3,4-dichlorophenyl)-1-ethyl-4-oxo-6-[[3-(trifluoromethyl)pyrazol-1-yl]methyl]pyridine-3-carboxylic acid] | 1 (1=0-20%) | 0 | 1 (1=0-20%) | 2 (2=21-40%) | 0 | 1 (1=0-20%) | 3 (3=41-60%) | 2 (2=21-40%) | 0 | 1 (1=0-20%) | 1 (1=0-20%) | 1 (1=0-20%) | 1 (1=0-20%) | 1 (1=0-20%) | 3 (3=41-60%) | 0 | 2 (2=21-40%) | 0 | 
